Here are results for one molecule from paper PMC4833932, “Cytotoxicity and cell cycle arrest induced by andrographolide lead to programmed cell death of MDA-MB-231 breast cancer cell line” (Journal of Biomedical Science, 2016).

Molecules are shown by their SMILES. Where two headings read alike, the source gives them in different places.

In data set [1] the test system is MDA-MB-231 cells. In words: Mitochondrial membrane potential (Rhodamine 123). The class given is cell-based, human. Conditions: 15-60 μM, 24 and 48 h. On the procedure: The loss of mitochondrial membrane potential (∆ψm) (MMP) is a primary event leading to phosphatidyl serine externalization, which corresponds with the activation of caspase. MMP was quantified by the incorporation of a fluorescent dye Rhodamine 123 [25]. Cells (1 × 10^4 per well) were incubated with different concentrations (15, 30, 45 or 60 μM) of andrographolide in the absence or presence of NAC for 24 and 48 h. Positive control was obtained with a mitochondrial uncoupling agent, carbonyl cyanide m-chloro-phenylhydrazone (CCCP; 20 μM) for 30 min. The treated cells were washed twice with chilled PBS before incubation with Rhodamine 123 (5 μg/ml) and kept at 37 °C for 15 min. The fluorescence intensity was detected using an emission filter of 535 nm. Same experiment was also performed using MCF-7 cells.

Data set [2] can be described thus: In vivo pharmacokinetic study, plasma LC-MS/MS. Further details: species or system Female BALB/c mice. Conditions: for Plasma exposure at 24 h: LLOQ 2.44 ng/ml; for bioavailability: PO 50 mg/kg vs IV 5 mg/kg; for half-life: read-out: Terminal T½ (converted); for AUC(0-t): read-out: AUC(0-8). As to the method: Female BALB/c mice, being divided into two groups (n = 6 per group), received andrographolide via oral route (PO) as well as intravenous (IV) bolus dosing at 50 mg/kg (equivalent to 142.73 μmol/kg and dose volume, 10 ml/kg) and 5 mg/kg body weight (equivalent to 14.27 μmol/kg and dose volume, 5 ml/kg) respectively. The formulation was prepared in 10 % DMSO, 10 % Cremophor and 80 % 1/15 (M) Na2HPO4 with dose volume of 10 ml/kg and 5 ml/kg for oral and IV respectively. ~50 μl of blood samples were collected at each time points (0.25, 0.5, 1, 2, 4, 8 and 24 h for PO and 0.08, 0.25, 0.5, 1, 2, 4, 8 and 24 h for IV) into heparinized capillary tubes by piercing the saphenous vein using a disposable needle (26 G). Blood samples were centrifuged at 3000 rpm for 10 min at 4 °C. The resulting plasma samples were stored at –80 °C until bioanalysis.
Analysis of plasma samples were performed using a liquid chromatography tandem mass spectroscopy (API-4000, AB Sciex Instruments, Foster City, CA) attached with the ESI source. The LC system consisted of LC-20ADvp pump (Shimadzu, Kyoto, Japan) and CTC PAL (HTS) autosampler. Liquid chromatography was performed using a Luna C18 column (2 × 30 mm, 5 μ particle) of Phenomenex (Torrance, CA) and the mobile phase consisted of 2 mM ammonium acetate in water (A) and 80: 20 (v/v) MeCN: Solvent A (B). The gradient elution program was as follows: first 60 s only A for washing, then 60 s for gradient up to 100 % B and it was continued for next 60 s. Total run time was 3.5 min with a flow of 0.8 ml/min at room temperature. Samples were detected and quantified using Analyst 1.4.2. Internal standard used was diclofenac.
The concentrations of test samples were determined from the standard curve prepared by spiking 2 μl of working stock in 98 μl of blank plasma along with the quality control samples (low, mid and high). The linear equation of the standard curve was obtained by regressional analysis of the peak area ratio of analyte to internal standard versus nominal concentration with a weighting factor of 1/X2. The calibration curve was linear in the concentration range 2.44 (LLOQ) to 1250 ng/ml.

In a further data set the test system is caspase-7. In words: Caspase activity assay in MCF-7 cells. The class given is cell-based, human. Conditions: MCF-7, 0-80 μM, 24 h.
The subject of another data set is male mice. Further details: method as in PMID 2228074. Conditions: intraperitoneal route; cited from earlier work.
Another data set concerns MDA-MB-231. Description: Cellular ROS level (DCF-DA). Conditions: 15, 30, 45 and 60 μM, 12-48 h. The class given is cell-based, human. As to the method:
To estimate intracellular ROS level, MDA-MB-231 (2 × 10^4 cells per well) were treated with andrographolide (15, 30, 45 and 60 μM) for 12–48 h and were harvested by centrifugation for the assay. The cell suspension (200 μl, containing 1 × 10^5 cells per ml) was mixed to PBS (800 μl) and 10 μM 2ʹ, 7ʹ-dichlorofluorescein diacetate (DCF-DA) and kept at 37 °C for 30 min in the dark. 25 μM H2O2 was used for positive control. The intracellular ROS level was measured by determining the production of H2O2 using a spectrofluorometer (excitation, 488 nm; emission, 515 nm). Another set of experiment was similarly performed where MDA-MB-231 cells were pre-treated with 3 mM NAC for 1 h followed by without or with andrographolide (30 μM) treatment. Same experiment was also performed using MCF-7 cells.

Data set [3] concerns caspase-9. Description: Caspase activity assay in MCF-7 cells. The class given is cell-based, human. Conditions: MCF-7, 0-80 μM, 24 h. As to the method:
(§1) MDA-MB-231 cells (1 × 10^5 cells per ml) were incubated with different concentrations of andrographolide (0, 15, 30, 45 and 60 μM) for 24 h and then centrifuged to detect caspase-3 and caspase-9 activation using caspase fluoremetric protease assay kit following manufacturer’s instructions. Briefly, cells were lysed in RIPA buffer supplemented with protease inhibitor cocktail and 10 μl lysate were diluted with 10 μl substrate buffer (1:1) containing 100 μM each of fluorogenic substrate, DEVD-AFC and LEHD-AFC for caspase-3 and caspase-9 respectively, and was then incubated for 90 min at 37 °C. Reactions were stopped using 0.2 mM sodium phosphate buffer (pH 7.5) and fluorescence was quantified by a spectrofluorometer (excitation, 405 nm; emission, 505 nm). Experiment was also performed using MCF-7 cells.

Data set [4] deals with MDA-MB-231 cells. Description: Cell proliferation assay (trypan blue). The class given is cell-based, human. Conditions: 30 μM, 48 h. On the procedure: MDA-MB-231 cells harvested from exponential growth phase were seeded at a density of 1 × 10^4/well in a 24-well culture plate. After 24 h, the cells were treated with varying concentrations of andrographolide (15, 30, 45 and 60 μM) or DMSO (0.1 %, vehicle control) for 12, 24, 36 and 48 h. After treatment, cells were harvested by trypsinization, stained with 0.4 % trypan blue and counted in a hemocytometer. Cell proliferation index PI, was calculated as PI = Ct/C0; where Ct = cell count at time t and C0 = cell count at the time of treatment.

The test system of data set [5] is caspase-9. Description: Caspase activity assay (fluorometric, LEHD-AFC) in MDA-MB-231 cells. The class given is cell-based, human. Conditions: 0-60 μM, 24 h. As to the method: as §1
The mark [6] stands for this setting: female, BALB/c, mouse, plasma, iv, 5 mg/kg, IV at 5 mg/kg, female BALB/c mice.
Setting [7] is: female, BALB/c, mouse, plasma, po, 50 mg/kg, PO at 50 mg/kg, female BALB/c mice.
The mark [8] stands for this setting: mouse, plasma, IV at 5 mg/kg, female BALB/c mice.
Where [9] appears, read: mouse, plasma, PO at 50 mg/kg, female BALB/c mice.

In general, bioavailability refers to the share of a dose that reaches the circulation, judged against a reference dose that is usually intravenous. Broadly, the AUC(0-inf) is the area under the concentration-time curve extrapolated to infinity. As a reminder, the clearance is the rate of elimination divided by the concentration. A word on the Cmax: it is the highest concentration seen after dosing. In general, Tmax refers to the time at which the peak concentration occurs. One may read the LD50 as the dose expected to kill half of the subjects tested. In the case of `C=C1CC[C@@H]2[C@](C)(CO)[C@H](O)CC[C@@]2(C)[C@@H]1C/C=C1/C(=O)OC[C@H]1O` [andrographolide], the MMP level result in the data set on MDA-MB-231 cells [1] is “significant (P < 0.01) drop of MMP level”. The “Plasma exposure at 24 h” value in data set [2] (IV arm, 5 mg/kg) is listed as “below lower limit of quantitation”. Also, the bioavailability in data set [2] (female BALB/c mice) amounted to 9.27 ± 1.69%. Moreover, the “Plasma exposure at 24 h” value in data set [2] (PO arm, 50 mg/kg) is reported as “below lower limit of quantitation”. Moreover, in data set [2] (PO at 50 mg/kg, female BALB/c mice), the CL was 1045 ± 201.7 mL/min/kg. Besides, in data set [2] (setting [6]), the AUC(0-inf) was found to be 2.51 ± 0.56 µM·h, the clearance was 91.8 mL/min/kg and the half-life was 1.86 ± 0.21 h. Besides, the bioavailability in data set [2] (female, BALB/c, mouse, plasma, oral, 50 mg/kg, female BALB/c mice, read-out: Bioavailability) was under 10%. Also, in data set [2] (setting [7]), the AUC(0-inf) worked out at 2.33 ± 0.42 µM·h and the half-life is 3.3 ± 0.35 h. Also, in data set [2] (setting [8]), the C0 is 14.6 ± 4.04 µM and the AUC(0-t) was 1.96 ± 0.38 µM·h. In data set [2] (setting [9]), the Cmax came to 0.73 ± 0.17 µM, the Tmax was 0.42 ± 0.14 h and the AUC(0-t) was 1.92 ± 0.36 µM·h. Further, the “caspase-7 (effector caspase) activation” value with caspase-7 is “activation in a dose-dependent manner”. Besides, in the data set on male mice, the LD50 was 11460 mg/kg. Besides, the “ROS generation (DCF fluorescence)” value with MDA-MB-231 was “increasing ROS generation with longer exposure and elevated dose”. Moreover, the “caspase-9 (initiator caspase) activation” value in the data set with caspase-9 [3] is on record as “activation in a dose-dependent manner”. In addition, in the data set on MDA-MB-231 cells [4], the cell death was ~ 50%. In addition, the “activation of caspase-9” value with caspase-9 [5] is given as “gradual dose-dependent activation”.
